Measured values as given in the CheMixHub viscosity set.

Test: xn = mol fraction of the nth substance listed

CCC(C)(C)C + CCCCCCCCCCCCCCCC
298 K, 101.33 kPa
Conditions | viscosity [mPa·s]
x1 = 0.1107 | 2.735
x1 = 0.2098 | 2.405
x1 = 0.3108 | 2.071
x1 = 0.4014 | 1.788
x1 = 0.5013 | 1.486
x1 = 0.6057 | 1.211
x1 = 0.7048 | 0.9511
x1 = 0.8022 | 0.711
x1 = 0.9014 | 0.5046

CCCCN + CCCCCCCCCCO
viscosity [mPa·s], 101.33 kPa
Conditions | x1 = 0.1009 | x1 = 0.1875 | x1 = 0.2926 | x1 = 0.4082 | x1 = 0.4885 | x1 = 0.5888 | x1 = 0.7198 | x1 = 0.8119 | x1 = 0.9029
303.15 K | 7.619 | 6.568 | 5.323 | 4.051 | 3.232 | 2.336 | 1.398 | 0.9303 | 0.6273
313.15 K | 5.926 | 5.059 | 4.058 | 3.072 | 2.462 | 1.813 | 1.151 | 0.8181 | 0.5744

CCCCN + CCCCCCCCO
viscosity [mPa·s], 101.33 kPa
Conditions | 303.15 K | 313.15 K | 323.15 K
x1 = 0.094 | 5.27 | 3.765 | –
x1 = 0.1 | 5.075 | 3.779 | 2.828
x1 = 0.1949 | 4.391 | 3.129 | –
x1 = 0.2011 | 4.061 | 3.065 | 2.358
x1 = 0.288 | 3.626 | 2.585 | –
x1 = 0.3 | 3.239 | 2.487 | 1.942
x1 = 0.4015 | 2.547 | 1.984 | 1.576
x1 = 0.4199 | 2.665 | 1.929 | –
x1 = 0.5003 | 1.995 | 1.59 | 1.289
x1 = 0.5164 | 2.065 | 1.521 | –
x1 = 0.6002 | 1.528 | 1.235 | 1.021
x1 = 0.619 | 1.523 | 1.154 | –
x1 = 0.7003 | 1.141 | 0.945 | 0.791
x1 = 0.7192 | 1.103 | 0.8639 | –
x1 = 0.7998 | 0.847 | 0.716 | 0.614
x1 = 0.8084 | 0.8208 | 0.6658 | –
x1 = 0.9 | 0.623 | 0.537 | 0.466
x1 = 0.9064 | 0.5902 | 0.5049 | –

CCCCN + CCCCCCCO
viscosity [mPa·s], 101.33 kPa
Conditions | 303.15 K | 313.15 K | 323.15 K
x1 = 0.0997 | 4.157 | 3.079 | 2.366
x1 = 0.122 | 3.964 | 2.931 | –
x1 = 0.1998 | 3.439 | 2.557 | –
x1 = 0.201 | 3.328 | 2.535 | 1.993
x1 = 0.2914 | 2.866 | 2.134 | –
x1 = 0.3 | 2.671 | 2.069 | 1.627
x1 = 0.4035 | 2.125 | 1.684 | 1.346
x1 = 0.4133 | 2.169 | 1.636 | –
x1 = 0.4897 | 1.797 | 1.363 | –
x1 = 0.5 | 1.669 | 1.336 | 1.094
x1 = 0.6006 | 1.294 | 1.056 | 0.879
x1 = 0.6172 | 1.284 | 0.9879 | –
x1 = 0.7002 | 0.975 | 0.797 | 0.676
x1 = 0.7147 | 0.9851 | 0.7769 | –
x1 = 0.8001 | 0.77 | 0.655 | 0.563
x1 = 0.8091 | 0.761 | 0.6198 | –
x1 = 0.8999 | 0.606 | 0.518 | 0.451
x1 = 0.907 | 0.5793 | 0.4903 | –

CCCC(=O)OCC(COC(=O)CCC)OC(=O)CCC + CCCCCCO
viscosity [mPa·s], 101.33 kPa
Conditions | x1 = 0.1 | x1 = 0.2 | x1 = 0.3 | x1 = 0.4 | x1 = 0.5 | x1 = 0.6 | x1 = 0.7 | x1 = 0.8 | x1 = 0.9
298 K | 4 | 4.09 | 4.3 | 4.65 | 5.05 | 5.56 | 6.15 | 6.84 | 7.68
303 K | 3.47 | 3.54 | 3.72 | 4 | 4.36 | 4.8 | 5.27 | 5.86 | 6.54
308 K | 3.02 | 3.08 | 3.26 | 3.49 | 3.79 | 4.15 | 4.57 | 5.07 | 5.63
313 K | 2.65 | 2.71 | 2.85 | 3.07 | 3.33 | 3.64 | 4 | 4.42 | 4.9

CCCCN + CCCCCCO
viscosity [mPa·s], 101.33 kPa
Conditions | 303.15 K | 313.15 K | 323.15 K
x1 = 0.099 | 3.27 | 2.673 | –
x1 = 0.1002 | 3.164 | 2.411 | 1.888
x1 = 0.2005 | 2.593 | 2.026 | 1.608
x1 = 0.2079 | 2.728 | 2.202 | –
x1 = 0.2888 | 2.334 | 1.906 | –
x1 = 0.3001 | 2.082 | 1.642 | 1.322
x1 = 0.4004 | 1.701 | 1.356 | 1.113
x1 = 0.414 | 1.79 | 1.47 | –
x1 = 0.5002 | 1.371 | 1.12 | 0.923
x1 = 0.5223 | 1.39 | 1.161 | –
x1 = 0.5987 | 1.155 | 0.9887 | –
x1 = 0.6001 | 1.105 | 0.909 | 0.765
x1 = 0.6999 | 0.906 | 0.759 | 0.648
x1 = 0.7197 | 0.8668 | 0.754 | –
x1 = 0.8001 | 0.729 | 0.622 | 0.537
x1 = 0.8124 | 0.6995 | 0.611 | –
x1 = 0.8998 | 0.573 | 0.494 | 0.433
x1 = 0.9046 | 0.5625 | 0.4944 | –

CCCCCCCCCC(=O)OCC + CCCCCO
viscosity [mPa·s], 100 kPa
Conditions | x1 = 0.1005 | x1 = 0.201 | x1 = 0.3 | x1 = 0.4 | x1 = 0.498 | x1 = 0.5999 | x1 = 0.7009 | x1 = 0.7997 | x1 = 0.8996
293.15 K | 3.246 | 2.808 | 2.563 | 2.417 | 2.33 | 2.29 | 2.258 | 2.259 | 2.289
298.15 K | 2.839 | 2.481 | 2.277 | 2.156 | 2.086 | 2.052 | 2.031 | 2.036 | 2.061
303.15 K | 2.493 | 2.202 | 2.036 | 1.943 | 1.878 | 1.852 | 1.834 | 1.842 | 1.866
308.15 K | 2.218 | 1.965 | 1.827 | 1.744 | 1.698 | 1.683 | 1.668 | 1.676 | 1.702
313.15 K | 1.966 | 1.762 | 1.648 | 1.581 | 1.543 | 1.529 | 1.522 | 1.536 | 1.558
318.15 K | 1.823 | 1.586 | 1.492 | 1.438 | 1.408 | 1.396 | 1.396 | 1.408 | 1.432

CCCCN + CCCCCO
viscosity [mPa·s], 101.33 kPa
Conditions | 303.15 K | 313.15 K | 323.15 K
x1 = 0.097 | 2.5 | 2.042 | –
x1 = 0.102 | 2.52 | 1.956 | 1.551
x1 = 0.1887 | 2.182 | 1.761 | –
x1 = 0.2002 | 2.086 | 1.639 | 1.322
x1 = 0.2883 | 1.842 | 1.49 | –
x1 = 0.2994 | 1.72 | 1.381 | 1.122
x1 = 0.388 | 1.53 | 1.264 | –
x1 = 0.4012 | 1.431 | 1.162 | 0.957
x1 = 0.5 | 1.19 | 0.976 | 0.816
x1 = 0.5146 | 1.18 | 0.9969 | –
x1 = 0.6008 | 0.996 | 0.829 | 0.697
x1 = 0.6173 | 0.9476 | 0.8283 | –
x1 = 0.6995 | 0.819 | 0.693 | 0.592
x1 = 0.7066 | 0.7962 | 0.6999 | –
x1 = 0.8002 | 0.68 | 0.583 | 0.505
x1 = 0.8075 | 0.6516 | 0.5757 | –
x1 = 0.8845 | 0.559 | 0.4945 | –
x1 = 0.8997 | 0.574 | 0.498 | 0.435

O=C(O)C(Cl)(Cl)Cl + CCCCCOC(C)=O
323.15 K, 101 kPa
Conditions | viscosity [mPa·s]
x2 = 0.2135 | 3.573
x2 = 0.4325 | 2.146
x2 = 0.6234 | 1.358
x2 = 0.8421 | 0.807

O=[N+]([O-])c1ccc(O)cc1 + CCCCCOC(C)=O
Conditions | viscosity [mPa·s]
298.15 K, 101 kPa, x1 = 0.5 | 1.564

CCCCN + CCCCN(CCCC)CCCC
viscosity [mPa·s], 101 kPa
Conditions | x2 = 0.0993 | x2 = 0.193 | x2 = 0.3946 | x2 = 0.4948 | x2 = 0.5888 | x2 = 0.7738 | x2 = 0.8887
303.15 K | 0.5014 | 0.566 | 0.7175 | 0.7961 | 0.8701 | 1.013 | 1.094
313.15 K | 0.4423 | 0.4968 | 0.6233 | 0.688 | 0.7498 | 0.8682 | 0.9377
